Experimental data taken from EPA's ToxValDB 9.5 (doi:10.2903/j.efsa.2019.5732).

Columns and labels:
Apis mellifera = conditions: acute, mortality
Oryctolagus sp. = conditions: developmental; development
Bibionidae = conditions: chronic/long-term; duration: 28 days; seedling emergence
Folsomia candida = conditions: chronic/long-term; mortality
Canidae = conditions: chronic; duration: 1 years; oral; Dog Other; organ weight
Mus musculus = conditions: chronic; duration: 18 months; mortality
Pontoscolex corethrurus = conditions: chronic/long-term; growth
Daphnia magna = conditions: chronic/long-term; duration: 21 days; reproduction

With CC(COc1ccc(Oc2ccccc2)cc1)Oc1ccccn1 (centres undefined) [Pyriproxyfen] the LD50 (Apis mellifera; dermal) was > 100 µg/piece, the LD50 (Apis mellifera; oral, unspecified) was 74 µg/piece and the NOAEL (Oryctolagus sp.) was 100 mg/kg-day. The NOEC (Bibionidae) was 3.1 µg/L, the LD50 (Anas platyrhynchos; acute, oral, unspecified, mortality) was > 1910 mg/kg-day and the NOEC (Anas platyrhynchos; chronic/long-term) was 70.2 mg/kg-day. For the same compound, the LC50 (Anas platyrhynchos; short-term, oral, feed, mortality) was > 1260 mg/kg-day, the NOEC (Folsomia candida) was 12.5 mg/kg and the NOAEL (Canidae) was 10 mg/kg-day. The LD50 (Rattus norvegicus; acute, oral, mortality) was > 5000 mg/kg-day, the NOAEL (Rattus norvegicus; reproduction developmental, organ weight) was 13.3 mg/kg-day and the LOAEL (Mus musculus) was 16.4 mg/kg-day. The NOEC (Pontoscolex corethrurus) was 50 mg/kg and the NOEC (Daphnia magna) was 0.015 µg/L.
